From US7169763B2, “Cytochrome P450 3A inhibitors and enhancers” (priority 2002, dated 2007)
Read-outs that look alike come from different tables or passages of the source. Values belong to the compound of their own block, whether it stands above or below them.

Assays:
CYP3A [1] = tested on: CYP3A; design: CYP3A Activity (percentage of control): dose or concentration left out as unconfirmed
[2] = given by mouth; cited from earlier work
in vivo = settings: beagle, dog, po, 10 mg/kg
CYP3A [3] = experiment: Determination of CYP3A activity by erythromycin demethylation method (rat liver homogenate/microsomes); design: CYP3A Activity (percentage of control): dose or concentration left out as unconfirmed; settings: for CYP3A Activity (percentage of control): Table 1 Inhibition; for inhibitory effects on rat liver CYP3A (in words): summary of Table 1

Compound: O=C/C=C/c1ccccc1 [Trans-cinnamaldehyde]
inhibitory effects on rat liver CYP3A (in words) (CYP3A [1]): particularly effective | CYP3A Activity (percentage of control) (CYP3A [1]; rat, 15 min, 10.22): 30.95 ± 1.03 percentage of control

Compound: CC(C)(C)c1ccc(C(O)CCCN2CCC(C(O)(c3ccccc3)c3ccccc3)CC2)cc1 (stereo not shown) [terfenadine]
fraction of active ingredient quickly changed to metabolites [2]: 99.5%

MRT (in vivo): 2.79 h | Tmax (in vivo): 0.75 h | half-life (in vivo): 1.47 h
Compound: CCC(C)(C)C(=O)O[C@H]1C[C@@H](C)C=C2C=C[C@H](C)[C@H](CC[C@@H]3C[C@@H](O)CC(=O)O3)[C@H]21 [Simvastatin]

CYP3A Activity (percentage of control) (CYP3A [3]; inhibitor concentration 4.3): 43.86 ± 4.45 percentage of control | CYP3A Activity (percentage of control) (CYP3A [3]; inhibitor concentration 24.66): 43.65 ± 0.57 percentage of control | CYP3A Activity (percentage of control) (CYP3A [3]; inhibitor concentration 77.07): 44.09 ± 4.39 percentage of control | inhibitory effects on rat liver CYP3A (in words) (CYP3A [3]): particularly effective
Compound: O=C(O)c1cc(O)c(O)c(O)c1 [Gallic acid]

CYP3A Activity (percentage of control) (CYP3A [3]; inhibitor concentration 0.004): 64.59 ± 3.34 percentage of control | CYP3A Activity (percentage of control) (CYP3A [3]; inhibitor concentration 0.04): 63.71 ± 11.57 percentage of control | CYP3A Activity (percentage of control) (CYP3A [3]; inhibitor concentration 0.4): 59.57 ± 5.41 percentage of control
Compound: CC(C)[C@@H](C)/C=C/[C@@H](C)[C@H]1CC[C@H]2C3=CC=C4C[C@@H](O)CC[C@]4(C)[C@H]3CC[C@]12C [ergosterol]

CYP3A Activity (percentage of control) (CYP3A [3]; inhibitor concentration 0.004): 84.66 ± 3.04 percentage of control | CYP3A Activity (percentage of control) (CYP3A [3]; inhibitor concentration 0.04): 81.59 ± 4.76 percentage of control | CYP3A Activity (percentage of control) (CYP3A [3]; inhibitor concentration 0.1): 64.47 ± 4.75 percentage of control
Compound: O=c1cc(-c2ccccc2)oc2cc(O)c(O)c(O)c12 [baicalein]

CYP3A Activity (percentage of control) (CYP3A [3]; inhibitor concentration 0.004): 84.66 ± 3.04 percentage of control | CYP3A Activity (percentage of control) (CYP3A [3]; inhibitor concentration 0.04): 75.89 ± 3.31 percentage of control | CYP3A Activity (percentage of control) (CYP3A [3]; inhibitor concentration 0.4): 48.25 ± 4.62 percentage of control | inhibitory effects on rat liver CYP3A (in words) (CYP3A [3]): particularly effective
Compound: COc1ccc([C@@H]2CC(=O)c3c(O)cc(O)cc3O2)cc1O [hesperetin]

Compound: CC1(C)CC[C@]2(C(=O)O)CC[C@]3(C)C(=CC[C@@H]4[C@@]5(C)CC[C@H](O)C(C)(C)[C@@H]5CC[C@]43C)[C@@H]2C1 [Oleanolic acid]
CYP3A Activity (percentage of control) (CYP3A [3]; inhibitor concentration 0.522): 55.95 ± 4.45 percentage of control | CYP3A Activity (percentage of control) (CYP3A [3]; inhibitor concentration 77.07): 44.64 ± 7.92 percentage of control
